# Results from patent publication US8440199B2, “Methods for mobilizing mesenchymal stem cells in a patient” (Imperial Innovations Limited, priority 2007, dated 2013).
# Legend:
# HPCs [1] = assay: In vitro chemotaxis of bone marrow HPCs towards SDF-1α; type: cell-based; conditions: bone marrow cells of mice treated 4 days; 30 nM SDF-1α, FIG. 23d, 23f
# Method: (§1) Bone marrow was aspirated on day 5 and harvested cells were used to determine a, SDF-1α levels in bone marrow supernatant as determined by ELISA; b, % of bone marrow Lin^− Sca-1^+ cells expressing CXCR4; and c, % of bone marrow CD34^+ VEGFR2^+ cells expressing CXCR4. Harvested cells were also utilized in the following chemotaxis assays: d, number of HPCs; and e, EPCs undergoing chemotaxis towards 30 nM SDF-1α. Cells taken from bone marrow of mice treated with G-CSF (closed bars) or vehicle (PBS, open bars). f, number of HPCs; and g, EPCs undergoing chemotaxis towards 30 nM SDF-1α.
# neutrophils [2] = conditions: VEGF pre-treatment 4 days, KC 30 μg/kg i.v., 60 minutes, FIG. 24c
# Method: 24 hours later these mice underwent perfusion of the right hind limb. CXCR4 antagonist (AMD3100 0.1 mM, closed bars) or vehicle (PBS, open bars) were then infused directly into the femoral artery for 10 minutes. The hind limb was then perfused for a further 50 minutes to allow collection of a, neutrophils via the femoral vein. […] The hind limb was again perfused for a further 50 minutes to allow b, collection of neutrophils. […] Data: mean±s.e.m. *: P<0.05, ***: P<0.001 between selected groups.
# Female BALB/c mice were purchased from Harlan (Oxford, United Kingdom). […] 24 hours after the last injection, mice were administered a CXCR4 antagonist (AMD3100, 5 mg/kg i.p), KC (30 μg/kg i.v.) or vehicle and blood was collected via cardiac puncture 60 minutes later for enumeration of circulating leukocyte, HPC, EPC, and stromal progenitor cell levels.
# (§5) The perfusate was centrifuged and re-suspended in DMEM+20% FBS. In some experiments citrated blood was obtained via cardiac bleed and lysed for red blood cells. Bone marrow and perfusate cytospins, and blood smears were stained using DiffQuik for the enumeration of mononuclear cells, eosinophils, and neutrophils. Bone marrow, perfusate and lysed blood were then used for assays outlined below to enumerate HPCs (CFU-HPC), EPCs (CFU-EPC), SPCs (CFU-F).
# Lin^− Sca-1^+ HPCs = assay: PI staining, cell cycle status of Lin- Sca-1+ HPCs; type: in vivo, mice; conditions: treated 4 days, FIG. 25c
# Method: (§2) For flow cytometric analysis, cells were re-suspended in FACS buffer. To identify neutrophils in the bone marrow, surface expression of the granulocyte marker Ly-6G/Ly6C (Gr-1) was determined. Neutrophils were identified as Gr-1^high positive cells with a characteristic high side scatter profile. HPCs residing in the BM were selected as being negative for lineage (Lin^−) markers: CD3e, CD11b, CD45R, Ly-76, and Gr-1 and positive for Sca-1 (Lin^− Sca-1^+ cells) (Gerber et al., 2002; Uchida, et al., 1997). EPCs residing in the BM were selected as being positive for both CD34 and VEGFR2 (CD34^+ VEGFR2^+ cells) (Asahara et al., 1997; Yoon et al., 2005). […] Samples were then washed and then quantified on a FACSAria cell sorter (BD Biosciences, Oxford, United Kingdom) and analysed using FACSDiva software.
# (§3) Lin^− Sca-1^+ cells and CD34^+ VEGFR2^+ cells were analysed to determine their cell cycling status using a propidium iodide (PI) stain. […] A dotplot of PI-Width against PI-Area was recorded. Aggregates of cells were detected as cells having a larger PI-W profile and were not included in the gate. […] To calculate the percentage of cells undergoing active cell cycling, a marker was set to exclude the G0/G1 peak and the percentage of cells in S/G2/M was calculated.
# neutrophils [3] = assay: Leukocyte counts of bone marrow; type: in vivo, mice; conditions: treated 4 days, compared to controls, FIG. 24f
# Method: 24 hours later these mice underwent perfusion of the right hind limb. CXCR4 antagonist (AMD3100 0.1 mM, closed bars) or vehicle (PBS, open bars) were then infused directly into the femoral artery for 10 minutes. The hind limb was then perfused for a further 50 minutes to allow collection of a, neutrophils via the femoral vein. […] The hind limb was again perfused for a further 50 minutes to allow b, collection of neutrophils.
# The perfusate was centrifuged and re-suspended in DMEM+20% FBS. […] Bone marrow and perfusate cytospins, and blood smears were stained using DiffQuik for the enumeration of mononuclear cells, eosinophils, and neutrophils.
# [4] = test system: mesenchymal stem cells (MSC); assay: Example 1: MSC mobilisation, hind limb bone marrow perfusion and circulating blood, CFU-MSC assay; type: in vivo, mice; conditions: perfusate and blood, FIGS. 9-12
# Method: 4×10^5 cells were added to 3 ml Mesencult media including supplements (05501 and 05502 Stemcell Technologies). Assay was performed in duplicate.
# [5] = test system: endothelial progenitor cells (EPC); assay: Example 1: EPC mobilisation, hind limb bone marrow perfusion and circulating blood, CFU-EPC assay; conditions: G-CSF or VEGF 2.5 μg on 4 consecutive days, then AMD3100; perfusate and blood, FIGS. 5-8
# Method: 24 hours after the last injection, mice were administered a CXCR4 antagonist (AMD3100, 5 mg/kg i.p), or vehicle and blood was collected via cardiac puncture 1 hour later for enumeration of circulating leukocyte, HPC, EPC and MSC levels.
# On day 5, mice were anaesthetized with urethane (25% 0.2 ml i.p.) and the femoral artery and vein exposed. The hind limb was isolated by occlusion of the external iliac artery, superficial epigastric and muscular branch with 5/0 braided silk suture. Polyethylene cannulae (0.61 mm OD, Portex, London, UK) were immediately inserted into the femoral artery and vein and tied in place with 5/0 braided silk suture. Perfusion buffer (modified Krebs-Ringer bicarbonate buffer) at 37° C. was infused (0.15 ml/min) via the arterial cannula and removed from the venous cannula using a Minipuls peristaltic pump (Anachem, Luton, UK). The hind limb was perfused for an initial 10 minutes to remove remaining blood from the vasculature and then perfused for a further 60 min with vehicle alone or AMD3100, a CXCR4 antagonist (0.1 mM, Sigma UK) infused over the first 10 minutes using an infusion/withdrawal pump (Harvard Instruments, U.K.).
# The perfusate was collected and centrifuged and the cell pellet re-suspended in Dulbecco's modified eagles medium (DMEM) with 20% fetal bovine serum (FBS). A total cell count was performed before the perfusate was lysed for red blood cells, re-suspended again in DMEM (20% FBS) and used for assays outlined below to enumerate haematopoietic progenitor cells (CFU-HPC), endothelial progenitor cells (CFU-EPC), and leukocyte populations.
# In some experiments blood was taken to enumerate HPCs, EPCs and leukocytes. A total cell count was performed on citrated blood before being lysed for red blood cells and re-suspended in DMEM (20% FBS).
# Assay was performed in duplicate. Dishes were incubated for 7 days before media was changed, and then incubated for a further 14 days before the enumeration of late outgrowth endothelial progenitor cells. Early outgrowth endothelial progenitor cells were enumerated on day 5.
# In each of the above assays, the total number of colony forming units mobilised is calculated according to the number of colonies per plate×by the total number of leukocytes mobilized/number of cells seeded.
# Mice were anaesthetised and the femoral artery and vein was cannulated such that the femoral bone marrow could be perfused (Martin et al, (2006) Br. J. Haem. 134: 326-329). […]
# Mice were injected i.p. with the CXCR4 antagonist, AMD3100, (or vehicle control) and 1 h later the mice were killed. Blood was collected by cardiac puncture and stem cell numbers in the blood were determined. […]
# EPCs [6] = assay: Circulating CFU-EPC in blood; type: in vivo, mice; conditions: FIG. 20c
# EPCs [7] = assay: In vitro chemotaxis of bone marrow EPCs towards SDF-1α; type: cell-based; conditions: bone marrow cells of mice treated 4 days; 30 nM SDF-1α, FIG. 23e, 23g
# Method: as §1
# EPCs [8] = assay: CFU-EPC bone marrow frequency; type: in vivo, mice; conditions: treated over 4 days, compared to controls, FIG. 22b
# HPCs [9] = conditions: treated over 4 days, compared to controls, FIG. 22a
# Method: 24 hours after the last injection, bone marrow was aspirated for the enumeration of a, CFU-HPC bone marrow frequency; b, CFU-EPC bone marrow frequency; and c, CFU-SPC bone marrow frequency.
# Mobilized cells were incubated for 11 days before quantification.
# HPCs [10] = assay: In situ perfusion of mouse hind limb, CFU-HPC in perfusate; conditions: for HPC mobilization from the bone marrow: FIG. 21b
# Method: 24 hours after the last injection, mice underwent perfusion of the right hind limb. […] The hind limb was then perfused for a further 50 minutes to allow collection of b, CFU-HPC; c, CFU-EPC; or d, CFU-SPC; via the femoral vein. CFU-HPC, CFU-EPC, and CFU-SPC are shown as total number of colonies collected in the perfusate. n=5-8 mice per group. Data: means±s.e.m. *: P<0.05, **: P<0.01, ***: P<0.001 between selected groups.
# Female BALB/c mice were purchased from Harlan (Oxford, United Kingdom).
# On day 5 following pre-treatment of growth factors, mice were anaesthetized and the femoral artery and vein exposed. The hind limb was isolated by occlusion of the external iliac artery, superficial epigastric and muscular branch. Polyethylene cannulae (Portex, London, UK) were immediately inserted into the femoral artery and vein as previously described (Martin et al., 2003; 2006; Wengner et al., 2008). Perfusion buffer was infused via the arterial cannula and removed from the venous cannula using a Minipuls peristaltic pump (Anachem, Luton, UK). The hind limb was perfused for an initial 2 minutes to remove remaining blood from the vasculature and then perfused for a further 60 min with vehicle alone or the CXCR4 antagonist (AMD3100, 0.1 mM), infused over the first 10 minutes using an infusion/withdrawal pump (Harvard Instruments, U.K.).
# The perfusate was centrifuged and re-suspended in DMEM+20% FBS. […] Bone marrow, perfusate and lysed blood were then used for assays outlined below to enumerate HPCs (CFU-HPC), EPCs (CFU-EPC), SPCs (CFU-F).
# 5×10^4 cells were added to Methocult medium (Stem cell technologies) supplemented with specific cytokines and growth factors to enable formation of CFU-HPC. Mobilized cells were incubated for 11 days before quantification. Further characteristics of CFU-HPC colonies were obtained on day 12, namely the mean number of cells in each colony, and the mean colony area. The mean colony area (mm^2) was determined by image analysis using Scion Image analysis program (NIH). The cell number was determined by diluting colonies grown in Methocult into DMEM (to disperse the methylcellulose) and aspirating the colonies into a single cell suspension before obtaining a cell count.
# (§6) The total number of colony forming units mobilized was calculated according to the number of colonies per plate×by the total number of leukocytes mobilized/number of cells seeded.
# [11] = test system: haematopoietic progenitor cells (HPC); assay: Example 1: HPC mobilisation, hind limb bone marrow perfusion and circulating blood, CFU-HPC assay; type: in vivo, mice; conditions: G-CSF or VEGF 2.5 μg on 4 consecutive days, then AMD3100 (0.1 mM infusion or 5 mg/kg i.p.); perfusate and blood, FIGS. 1-4
# Method: Assay was performed in duplicate Mobilised cells were maintained in semi-solid methylcellulose cultures for 11 days before quantification of the number of CFU-HPCs.
# [12] = Total number of cells in the femurs; type: in vivo; conditions: treated over 4 days; not significantly different compared to control mice
# Method: (§7) 24 hours after the last injection, mice were administered a CXCR4 antagonist (AMD3100, 5 mg/kg i.p), KC (30 μg/kg i.v.) or vehicle and blood was collected via cardiac puncture 60 minutes later for enumeration of circulating leukocyte, HPC, EPC, and stromal progenitor cell levels.
# as §5
# CD34^+ VEGFR2^+ EPCs = assay: PI staining, cell cycle status of CD34+ VEGFR2+ EPCs; type: in vivo, mice; conditions: treated 4 days, FIG. 25d
# Method: as §2, §3
# CXCR2 = assay: Flow cytometry of CXCR2 expression on bone marrow neutrophils; type: in vivo; conditions: VEGF-treated mice, FIG. 24d
# Method: (§4) For flow cytometric analysis, cells were re-suspended in FACS buffer. To identify neutrophils in the bone marrow, surface expression of the granulocyte marker Ly-6G/Ly6C (Gr-1) was determined. Neutrophils were identified as Gr-1^high positive cells with a characteristic high side scatter profile. HPCs residing in the BM were selected as being negative for lineage (Lin^−) markers: CD3e, CD11b, CD45R, Ly-76, and Gr-1 and positive for Sca-1 (Lin^− Sca-1^+ cells) (Gerber et al., 2002; Uchida, et al., 1997). EPCs residing in the BM were selected as being positive for both CD34 and VEGFR2 (CD34^+ VEGFR2^+ cells) (Asahara et al., 1997; Yoon et al., 2005). Furthermore, neutrophils were stained for the surface expression of CXCR2, whilst Lin^− Sca-1^+ cells and CD34^+ VEGFR2^+ cells were stained for the cell surface expression of CXCR4. Samples were then washed and then quantified on a FACSAria cell sorter (BD Biosciences, Oxford, United Kingdom) and analysed using FACSDiva software.
# HPCs [13] = assay: Circulating CFU-HPC in blood; conditions: agent alone (AMD3100 5 mg/kg i.p., blood at 60 min; G-CSF or VEGF once daily for 4 days), FIG. 20b
# Method: a, Experimental protocol. […] 24 hours after the last injection, mice were administered a CXCR4 antagonist (AMD3100 5 mg/kg i.p, closed bars) or vehicle (PBS, open bars). 60 minutes later, blood was taken for analysis of circulating: b, CFU-HPC; c, CFU-EPC; and d, CFU-SPC. CFU-HPC, CFU-EPC, and CFU-SPC are shown as number of colonies per ml blood. n=5-8 mice per group. Data: means±s.e.m. *: P<0.05, **: P<0.01, ***: P<0.001 between selected groups.
# as §7
# In some experiments citrated blood was obtained via cardiac bleed and lysed for red blood cells. […] Bone marrow, perfusate and lysed blood were then used for assays outlined below to enumerate HPCs (CFU-HPC), EPCs (CFU-EPC), SPCs (CFU-F).
# 5×10^4 cells were added to Methocult medium (Stem cell technologies) supplemented with specific cytokines and growth factors to enable formation of CFU-HPC. Mobilized cells were incubated for 11 days before quantification.
# as §6
# CXCR4 = assay: Flow cytometry of CXCR4 expression on bone marrow HPCs and EPCs; type: in vivo, mice; conditions: treated 4 days
# Method: as §1, §4
substance,measurement,setting,value
VEGF,HPC chemotaxis towards SDF-1α,HPCs [1],abolished the ability of HPCs to migrate to SDF-1α
same,KC-induced mobilization of neutrophils in vivo,neutrophils [2],completely abrogated
same,percentage of Lin- Sca-1+ HPCs in S/G2/M phase of the cell-cycle,Lin^− Sca-1^+ HPCs,significant increase in the percentage of BM-HPCs
same,numbers of neutrophils in the bone marrow,neutrophils [3],significant reduction in absolute numbers of mature neutrophils
same,MSC mobilization,"[4]; G-CSF or VEGF 2.5 μg on 4 consecutive days, then AMD3100",mobilizes MSC into the blood
same,MSC mobilization,[4]; agent alone,does not mobilize MSCs
same,EPC mobilization,[5],additive effect of AMD3100 and VEGF with respect to EPC mobilization
same,circulating numbers of EPCs,"EPCs [6]; agent alone (AMD3100 5 mg/kg i.p., blood at 60 min; G-CSF or VEGF once daily for 4 days)",increase in EPC numbers
same,circulating numbers of EPCs,"EPCs [6]; growth factor pre-treatment over 4 days, then CXCR4 antagonist AMD3100 5 mg/kg i.p.",more than additive increase in EPC numbers
same,EPC chemotaxis towards SDF-1α,EPCs [7],had no effect on EPC migration
same,frequency/number of EPCs in the bone marrow,EPCs [8],no difference was observed
same,frequency of HPCs in the bone marrow,HPCs [9],no difference was observed
same,reduction of HPC mobilization induced by infusion of the CXCR4 antagonist,"HPCs [10]; VEGF pre-treatment 4 days, then CXCR4 antagonist infused",75%
same,HPC mobilization from the bone marrow,"HPCs [10]; agent alone (CXCR4 antagonist 0.1 mM infused 10 min; G-CSF or VEGF pre-treatment 4 days), perfusate over 1 hour",HPCs and SPCs were not mobilized
same,"HPC mobilization, acute administration","HPCs [10]; growth factor (50 nM) infused into femoral artery for 10 minutes, alone, FIG. 31a",mobilized both HPCs and EPCs
same,HPC mobilization from the bone marrow,"HPCs [10]; growth factor pre-treatment 4 days, then CXCR4 antagonist infused",almost completely suppressed HPC mobilization
same,HPC mobilization,[11],inhibits the capacity for AMD3100 to mobilize HPCs
same,total number of cells in the femurs,[12],1.07±0.11×10^7 cells/femur
same,percentage of CD34+ VEGFR2+ EPCs in S/G2/M phase of the cell-cycle,CD34^+ VEGFR2^+ EPCs,did not alter the percentage of CD34^+ VEGFR2^+ EPCs in the S/G2/M phase
same,proportion of Gr-1+ bone marrow neutrophils expressing CXCR2,CXCR2,did not affect either the proportion of Gr-1^+ bone marrow neutrophils expressing CXCR2
same,circulating numbers of HPCs,HPCs [13],did not increase circulating numbers of HPCs
same,CXCR4 expression on EPCs,"CXCR4; CD34+ VEGFR2+ bone marrow cells, FIG. 23c",did not alter the expression of CXCR4 on either HPCs or EPCs
same,CXCR4 expression on HPCs,"CXCR4; Lin- Sca-1+ bone marrow cells, FIG. 23b",did not alter the expression of CXCR4 on either HPCs or EPCs
